Assay results published in article PMC10714399, “Open Source Antibiotics: Simple Diarylimidazoles Are Potent against Methicillin-Resistant Staphylococcus aureus” (ACS Infectious Diseases, 2023).
Values after ≈ are worked out from the molar mass of the structure shown. Values joined by “and” are separate entries in the source; they are usually repeats but may differ in a detail not shown here. Equal values may be shown once. Read-outs that look alike come from different tables or passages of the source.

Assays:
[1] = test system: Enterococcus faecalis ATCC 51299 (vanA-positive; vancomycin-resistant); assay: In vitro antibacterial activity, MIC (UCL), VRE; format: cell-based
Protocol: (§1) Staphylococcus aureus NCTC 13373 (mecA-positive; methicillin-resistant, NCTC 13373) was supplied by the National Collection of Type Cultures (NCTC), Public Health England, United Kingdom. Other organisms, S. aureus ATCC 25923 (methicillin-susceptible) and Enterococcus faecalis ATCC 51299 (vanA-positive; vancomycin-resistant), were obtained from the American Type Culture Collection (ATCC) via LGC Standards, UK. A suspension of each organism was prepared from an overnight plate culture (tryptone soya agar) in phosphate-buffered saline (PBS) and adjusted to an absorbance reading at 600 nm of 0.1, which is approximately equivalent to 1 × 10^8 colony-forming units (CFU) per mL. The cultures were further diluted 1:100 in isosensitest broth (Oxoid, United Kingdom) before 100 μL was used to inoculate each well of a 96-well plate that contained diluted samples of the OSA series. Compounds were evaluated over a 2-fold dilution range from 32 to 0.03 μg/mL. Stocks of the samples were prepared in 100% DMSO at […] before being diluted in isosenstitest broth. The highest concentration of DMSO present was 2%, which has been previously shown not to inhibit the growth of the microorganisms (data not shown). […] Vancomycin was used as a quality control compound.

[2] = test system: Staphylococcus aureus NCTC 13373 (mecA-positive; methicillin-resistant); assay: In vitro antibacterial activity, MIC (UCL School of Pharmacy assay), MRSA; format: cell-based; conditions: for MIC: Staphylococcus aureus
Protocol: as §1

[3] = test system: S. aureus ATCC 25923 (methicillin-susceptible); assay: In vitro antibacterial activity, MIC (UCL), MSSA; format: cell-based, Staphylococcus aureus; conditions: for MIC: Staphylococcus aureus
Protocol: as §1

[4] = test system: MRC-5SV2 (human lung fibroblast cell line); assay: Toxicity against MRC-5SV2; format: cell-based
Protocol: (§2) ADME and toxicity for compounds were measured according to procedures outlined in the manuscript submitted in parallel to this one;2 other procedures were used for those compounds analysed by Monash University (in vitro ADME) or UCL (toxicity), both described in the main

[5] = test system: PMM (primary mouse macrophages); assay: Toxicity against PMM; format: cell-based
Protocol: as §2

[6] = UCL assay, read-out: MRSA MIC (ug/mL) (UCL)
[7] = UCL assay, read-out: MSSA MIC (ug/mL) (UCL)

Compound | MIC [2, 6] [µg/mL] | MIC [3, 7] [µg/mL] | MRC5 TC50 ([4]; MRC5 cells) [µM] | PMM TC50 ([5]; PMM) [µM] | further results
Cc1ccc2nc(-c3ccccn3)c(NCc3ccccc3)n2c1 [OSA_000842] |  |  |  |  | MIC ([1]; read-out: VRE MIC (UCL)): 32 mg/L (≈ 102 µM); MIC ([2]; UCL, read-out: MRSA MIC (UCL)): 8 µg/mL (≈ 25.4 µM); MIC ([3]; read-out: MSSA MIC (UCL)): 4 µg/mL (≈ 12.7 µM)
COc1ccn2c(Nc3ccccc3F)c(-c3ccccn3)nc2c1 [OSA_000851] |  |  |  |  | MIC ([1]; read-out: VRE MIC (UCL)): 16 mg/L (≈ 47.9 µM); MIC ([2]; UCL, read-out: MRSA MIC (UCL)): 8 µg/mL (≈ 23.9 µM); MIC ([3]; read-out: MSSA MIC (UCL)): 4 µg/mL (≈ 12 µM)
c1cnc(-c2nc3n(c2-c2ccc4occc4c2)CCC3)cn1 [OSA_000873] |  |  |  |  | MIC ([1]; read-out: VRE MIC (UCL)): > 32 mg/L; MIC ([2]; UCL, read-out: MRSA MIC (UCL)): > 32 µg/mL; MIC ([3]; read-out: MSSA MIC (UCL)): > 32 µg/mL
Cc1ccc2nc(-c3ccccc3)cn2c1 [OSA_001026] | > 32 | > 32 | 64 | 64 | 
Cc1ccc2nc(-c3ccccc3)c(CNc3ccc(F)cc3)n2c1 [OSA_001027] | > 32 | > 32 | 64 | 64 | 
Cc1ccc2nc(-c3ccccc3)c(CNc3cccc(C(F)(F)F)c3)n2c1 [OSA_001028] | > 32 | > 32 | 64 | 64 | 
CCCCN(Cc1c(-c2ccccc2)nc2ccc(C)cn12)c1cccc(C(F)(F)F)c1 [OSA_001029] | 8 (≈ 18.3 µM) | 8 (≈ 18.3 µM) | 1.19 | 8 | 
Cc1ccn2cc(-c3ccccn3)nc2c1 [OSA_001030] | > 32 | > 32 | 22.11 | 64 | 
FC(F)(F)c1ccc(-c2c(-c3ccccn3)nc3n2CCC3)cc1 [OSA_001052] | 16 (≈ 48.6 µM) | 16 (≈ 48.6 µM) | 8.17 | 32 | 
Fc1ccc(-c2c(-c3ccccn3)nc3n2CCC3)cc1 [OSA_001053] | > 32 | > 32 | 7.55 | 32 | 
c1ccc(-c2nc3n(c2-c2ccncc2)CCC3)nc1 [OSA_001072] | > 32 | > 32 | 64 | 64 | 
Fc1cc(-c2c(-c3ccccn3)nc3n2CCC3)ccn1 [OSA_001073] | > 32 | > 32 | 30.55 | 32 | 
Nc1ccc(-c2c(-c3ccccn3)nc3n2CCC3)cc1 [OSA_001074] | > 32 | > 32 | 5.73 | 8 | 
N#Cc1ccc(-c2c(-c3ccccn3)nc3n2CCC3)cn1 [OSA_001075] | > 32 | > 32 | 64 | 64 | 
N#Cc1ccc(-c2c(-c3ccccn3)nc3n2CCC3)cc1C(F)(F)F [OSA_001077] | > 32 | > 32 | 64 | 64 | 
Cc1ccc2nc(-c3ccccn3)c(NCc3ccccc3)n2c1 [compound 842] |  |  |  |  | VRE MIC [1]: 32 mg/L; MRSA MIC [2]: 8 mg/L; MSSA MIC [3]: 4 mg/L
COc1ccn2c(Nc3ccccc3F)c(-c3ccccn3)nc2c1 [compound 851] |  |  |  |  | VRE MIC [1]: 16 mg/L; MRSA MIC [2]: 8 mg/L; MSSA MIC [3]: 4 mg/L

Compound | MIC [2, 6] [µg/mL] | MIC [3, 7] [µg/mL] | MRC5 TC50 ([4]; MRC5 cells) [µM] | PMM TC50 ([5]; PMM) [µM] | further results
COc1ccn2c(NCc3cn(C)cn3)c(-c3ccccn3)nc2c1.O=CO [compound 853] |  |  |  |  | VRE MIC [1]: > 32 mg/L; MRSA MIC [2]: > 32 mg/L
COc1ccn2c(Nc3ccnc(C)c3)c(-c3ccccn3)nc2c1 [compound 854] |  |  |  |  | VRE MIC [1]: > 32 mg/L; MRSA MIC [2]: > 32 mg/L
c1ccc(-c2nc3ncccn3c2-c2ccc3occc3c2)nc1 [compound 863] |  |  |  |  | VRE MIC [1]: > 32 mg/L; MRSA MIC [2]: > 32 mg/L
N#Cc1cccc(-c2c(-c3ccccn3)nc3n2CCC3)c1 [compound 864] |  |  |  |  | MIC ([1]; read-out: VRE MIC): > 32 mg/L; MIC ([2]; read-out: MRSA MIC): > 32 µg/mL
COc1ccn2c(Nc3ccc4c(c3)OCCO4)c(-c3c[nH]cn3)nc2c1 [compound 866] |  |  |  |  | VRE MIC [1]: > 32 mg/L; MRSA MIC [2]: > 32 mg/L
COc1ccc2nc(-c3c[nH]cn3)c(Nc3ccc4c(c3)OCCO4)n2c1 [compound 867] |  |  |  |  | VRE MIC [1]: > 32 mg/L; MRSA MIC [2]: > 32 mg/L
FC(F)(F)Oc1ccc(-c2c(-c3ccccn3)nc3n2CCC3)cc1 [compound 868] |  |  |  |  | MIC ([1]; read-out: VRE MIC): 32 mg/L (≈ 92.7 µM); MIC ([2]; read-out: MRSA MIC): 8 µg/mL (≈ 23.2 µM)
c1cnc(-c2nc3n(c2-c2ccc4occc4c2)CCC3)cn1 [compound 873] |  |  |  |  | MIC ([1]; read-out: VRE MIC): > 32 mg/L; activity against MRSA, in words [2]: inactive; MIC ([2]; read-out: MRSA MIC): > 32 µg/mL; MIC ([3]; read-out: MSSA MIC): > 32 µg/mL
c1ncc(-c2nc3n(c2-c2ccc4occc4c2)CCC3)cn1 [compound 874] |  |  |  |  | MIC ([1]; read-out: VRE MIC): > 32 mg/L; activity against MRSA, in words [2]: inactive; MIC ([2]; read-out: MRSA MIC): > 32 µg/mL
Clc1ccc(-c2c(-c3ccccn3)nc3n2CCC3)cc1Cl [compound 876] |  |  |  |  | MIC ([1]; read-out: VRE MIC): 8 mg/L (≈ 24.2 µM); MIC ([2]; read-out: MRSA MIC): 8 µg/mL (≈ 24.2 µM)
CC(=O)c1ccc(-c2c(-c3ccccn3)nc3n2CCC3)cc1 [compound 973] |  |  |  |  | MIC ([1]; read-out: VRE MIC): > 32 mg/L; activity against MRSA, in words [2]: not tolerated; MIC ([2]; read-out: MRSA MIC): > 32 µg/mL
Cc1cccc(-c2c(-c3ccccn3)nc3n2CCC3)c1 [compound 976] |  |  |  |  | MIC ([1]; read-out: VRE MIC): 32 mg/L (≈ 116 µM); MIC ([2]; read-out: MRSA MIC): 8 µg/mL (≈ 29.1 µM)
Cc1ccccc1-c1c(-c2ccccn2)nc2n1CCC2 [compound 977] |  |  |  |  | MIC ([1]; read-out: VRE MIC): 32 mg/L (≈ 116 µM); MIC ([2]; read-out: MRSA MIC): 32 µg/mL (≈ 116 µM)
Fc1ccc(NCc2c(-c3ccccn3)nc3ccccn23)cc1 [compound 1019] |  |  |  |  | MRC5 TC50 [4]: 20.4 mg/L; PMM TC50 [5]: 20.4 mg/L; MRSA MIC [2]: 32 mg/L; MIC ([2]; read-out: MRSA MIC): > 32 µg/mL; MIC ([3]; read-out: MSSA MIC): > 32 µg/mL
CS(=O)(=O)c1ccc2nc(-c3ccccn3)c(Nc3ccc(F)cc3)n2c1 [compound 1020] |  |  |  |  | MRC5 TC50 [4]: 24.5 mg/L; PMM TC50 [5]: 12.2 mg/L; MRSA MIC [2]: > 32 mg/L and 32 mg/L; MSSA MIC [3]: > 32 mg/L
CC(=O)N(c1ccc(F)cc1)c1c(-c2ccccn2)nc2ccccn12 [compound 1021] |  |  |  |  | MRC5 TC50 [4]: 22.2 mg/L; PMM TC50 [5]: 22.2 mg/L; MRSA MIC [2]: 32 mg/L; MIC ([2]; read-out: MRSA MIC): > 32 µg/mL; MIC ([3]; read-out: MSSA MIC): > 32 µg/mL
Cc1ccc2nc(-c3ccccc3)cn2c1 [compound 1026] |  |  |  |  | MRC5 TC50 [4]: 13.3 mg/L; PMM TC50 [5]: 13.3 mg/L; MRSA MIC [2]: > 32 mg/L and 32 mg/L; MSSA MIC [3]: > 32 mg/L

Continued, in another order:

MIC [2, 6] [µg/mL] | MIC [3, 7] [µg/mL] | Compound | MRC5 TC50 ([4]; MRC5 cells) [µM] | PMM TC50 ([5]; PMM) [µM] | further results
> 32 | > 32 | Fc1ccc(NCc2c(-c3ccccn3)nc3ccccn23)cc1 [OSA_001019] | 64 | 64 | 
> 32 | > 32 | Cc1ccn2c(CNc3ccc(F)cc3)c(-c3ccccn3)nc2c1 [OSA_001031] | 64 | 64 | 
32 (≈ 82.4 µM) | 32 (≈ 82.4 µM) | CCCCN(Cc1c(-c2ccccn2)nc2cc(C)ccn12)c1ccc(F)cc1 [OSA_001032] | 16 | 32 | 
> 32 | > 32 | Cc1ccn2c(CN(CC(C)C)c3cccc(C(F)(F)F)c3)c(-c3ccccn3)nc2c1 [OSA_001033] | 9.78 | 32 | 
> 32 | > 32 | COc1cc(-c2c(-c3ccccn3)nc3n2CCC3)ccc1C#N [OSA_001076] | 27.86 | 64 | 
